The text below walks through data of US9610292B2, “Uses for 4,17β-dihydroxyandrost-4-ene-3-one” (MaBel GmbH, priority 2006, dated 2017).

In experiment [1] the test system is MCF-7 cells. As to the kind of experiment: Inhibition of MCF-7 cell proliferation (counting of vital cells). Format: cell-based, human. The conditions noted are these: 10^-7 M, 10^-8 M and 10^-9 M; cell counting after 3, 6 and 9 days; compared with DHT and control. The method, then: MCF-7 cells were grown in RPMI 1640 medium at 37° C. to a cell number of about 1*10^5 cells/ml. Then, in quadruple identical MCF-7 cell samples, there were added either dihydrotestosterone (DHT) or 4-hydroxytestosterone (4-OHT), to obtain different concentrations thereof, namely 10^−7 M, 10^−8 M or 10^−9 M, and further growth of cells were determined by counting of vital cells. During the course of incubation at 37° C., cell counting were performed after 3, 6 and 9 days. For control, growth of MCF-7 cells were determined without addition of an active agent.
The results on an inhibition of MCF-7 cell proliferation are shown in FIGS. 1A, 1B and 1C for the compound concentrations of 10^−7 M, 10^−8 M and 10^−9 M of either DHT or 4-OHT, respectively, and compared with the control.

Experiment [2] deals with malign breast carcinoma (C. mammae). As to the kind of experiment: Double blind clinical test, topical cream once a day for 3 months, patients with malign breast carcinoma. Format: in vivo, human. The conditions noted are these: for Clinical Remission: daily topical cream, 3 months. On the procedure:
Double blind clinical tests were conducted with a group of 10 female patients. In this clinical testing, particular attention was paid to hormone receptor statuses of patients' target breast cancer tissue regarding progesterone receptor (PR) and in particular regarding estrogen receptor (ER); The cancers of the patients were assumed to be predominantly androgen receptor (AR) positive. Among this group, six patients had histologically ascertained malign breast carcinoma (C. mammae). […] In a sixth patient, the presence of a malign breast carcinoma was ascertained, but the amount of cancer tissue was too low to determine receptor status.
(§1) All 10 female patients were topically and locally treated using 4-hydroxytestosterone as active agent, by administering of a cream as described in Example 2 locally to target skin portions of the breasts. After continuing daily topical administration once a day during an administration period of 3 months, clinical investigations on therapeutic effects were performed.
The results of the 6 patients having malign breast carcinoma are shown in the following Table 1, together with the receptor status determined for patient nos. 1 to 5.

Experiment [3] concerns normal or mastopathic breast tissue. As to the kind of experiment: Double blind clinical test, topical cream, patients with non-malign disease states. The conditions noted are these: 4 patients having non-malign disease states, topical administration. Format: in vivo, human. On the procedure:
as §1

Consider `C[C@]12CC[C@H]3[C@@H](CCC4=C(O)C(=O)CC[C@@]43C)[C@@H]1CC[C@@H]2O` [4-hydroxytestosterone, 4,17β-dihydroxyandrost-4-ene-3-one], for which the “inhibitory effect on MCF-7 cell proliferation” value in experiment [1] is given as “significantly enhanced inhibitory effect”. Further, the “Clinical Remission” value in experiment [2] (Patient # 1, ER 0, PR 0, Her2neu 0) is “yes”; in experiment [2] (Patient # 3, ER 0, PR 0, Her2neu 0), “yes”; in experiment [2] (Patient # 6, receptor status unknown), “yes”. The “efficacy in shrinking cancerous tissues” value in experiment [2] (clinical study overall, including ER negative cancers) is listed as “excellent efficacy”. Further, the “tissue reduction of normal or mastopathic appearing tissues” value in experiment [3] is recorded as “clear tendency for tissue reduction”.
